What was measured:
Cholinesterase = Cholinesterase (Equus caballus, UniProt P81908); test: Inhibition of horse serum BChE after 15 mins by Ellman's method
Acetylcholinesterase = Acetylcholinesterase (Electrophorus electricus, UniProt O42275)
Chain of Acetylcholinesterase (O42275 whole entry): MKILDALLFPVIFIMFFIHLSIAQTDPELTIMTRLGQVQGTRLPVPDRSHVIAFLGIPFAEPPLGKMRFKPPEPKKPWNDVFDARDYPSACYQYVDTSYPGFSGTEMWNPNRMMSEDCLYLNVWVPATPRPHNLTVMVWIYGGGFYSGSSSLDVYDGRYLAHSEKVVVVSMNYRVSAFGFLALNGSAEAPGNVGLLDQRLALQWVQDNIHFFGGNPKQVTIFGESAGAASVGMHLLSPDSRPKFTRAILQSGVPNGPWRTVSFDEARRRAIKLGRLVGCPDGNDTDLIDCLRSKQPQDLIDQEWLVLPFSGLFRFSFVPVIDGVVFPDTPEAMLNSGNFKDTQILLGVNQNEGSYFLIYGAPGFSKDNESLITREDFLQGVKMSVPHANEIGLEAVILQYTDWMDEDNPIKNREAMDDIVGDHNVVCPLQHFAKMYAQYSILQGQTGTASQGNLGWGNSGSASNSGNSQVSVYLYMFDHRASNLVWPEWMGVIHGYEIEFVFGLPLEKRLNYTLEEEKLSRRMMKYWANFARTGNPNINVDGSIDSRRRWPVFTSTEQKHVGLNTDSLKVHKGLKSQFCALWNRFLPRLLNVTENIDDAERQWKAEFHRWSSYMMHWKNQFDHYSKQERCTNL
Description: Inhibition of electric eel AChE after 15 mins by Ellman's method

Chain of Cholinesterase (P81908 whole entry): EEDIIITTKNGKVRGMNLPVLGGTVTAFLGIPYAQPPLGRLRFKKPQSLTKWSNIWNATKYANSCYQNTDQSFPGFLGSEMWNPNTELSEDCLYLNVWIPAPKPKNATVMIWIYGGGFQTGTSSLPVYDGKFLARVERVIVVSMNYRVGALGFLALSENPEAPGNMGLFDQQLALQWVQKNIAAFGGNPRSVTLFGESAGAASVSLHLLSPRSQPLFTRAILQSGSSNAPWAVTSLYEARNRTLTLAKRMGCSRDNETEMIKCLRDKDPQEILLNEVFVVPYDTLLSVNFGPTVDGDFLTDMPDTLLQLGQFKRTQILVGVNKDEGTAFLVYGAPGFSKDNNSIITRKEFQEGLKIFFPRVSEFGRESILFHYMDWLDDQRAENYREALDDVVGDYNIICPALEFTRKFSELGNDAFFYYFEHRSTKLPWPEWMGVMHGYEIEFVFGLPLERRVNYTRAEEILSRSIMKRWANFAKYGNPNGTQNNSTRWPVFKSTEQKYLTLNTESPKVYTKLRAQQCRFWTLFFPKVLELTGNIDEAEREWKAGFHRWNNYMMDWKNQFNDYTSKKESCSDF

| SMILES | IC50 (Cholinesterase) [µM] | IC50 (Acetylcholinesterase) [µM] |
| --- | --- | --- |
| Cn1c(=O)c(C(=O)NCCNCCNCCN)c(O)c2ccccc21 | 5.2 | > 30 |
| CC1=C2C(=O)Nc3c(cccc3[N+](=O)[O-])C2NC(=O)N1C (racemic) | > 30 | 8 |
| O=C(N/N=C/c1ccc(O)cc1O)c1c(O)c2c(Cl)cccc2[nH]c1=O | > 30 | 12 |
| CCN1C(=O)NC2C(=C1C)C(=O)Nc1c2cccc1[N+](=O)[O-] (racemic) | > 30 | 6 |
| NCCNCCNCCNC(=O)c1c(O)c2ccccc2[nH]c1=O | 19 | 13 |

Source: ChEMBL document CHEMBL1649377, “Synthesis, biological assessment and molecular modeling of new dihydroquinoline-3-carboxamides and dihydroquinoline-3-carbohydrazide derivatives as cholinesterase inhibitors, and Ca channel antagonists” (Eur J Med Chem, 2011)
